Results: US20050113450A1, “Antibacterial agents” (priority 2002, published 2005)
Values after ≈ are worked out from the molar mass of the structure shown.

Test system: SA 9218
Assay: MIC by standard agar dilution method
Assay type: cell-based
Details: Mueller Hinton agar, 10^4 to 10^5 cells per spot, incubated overnight at 35° C., lowest concentration that inhibits visible growth
In short: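 MIC read after overnight 35 °C incubation as lowest drug level preventing visible growth. Inoculum of roughly 10^4–10^5 cells per spot (0.5 McFarland, 1:20 in TSB) applied to Mueller Hinton agar containing serial 2-fold compound dilutions.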

Structure (SMILES)	MIC [µg/mL]	SA 9218 MIC [µg/mL]
CC1CCCN1S(=O)(=O)c1cccc(C(=O)Nc2ccc(C#N)cc2C(=O)O)c1 (centres unmarked) [PHA-569064]	1 (≈ 2.42 µM)	
COC(=O)COc1ccc(C(=O)Nc2ccc(Br)cc2C(=O)O)cc1	64 (≈ 157 µM)	
CC(C(O)c1ccccc1)N(C)S(=O)(=O)c1cccc(C(=O)Nc2ccc(C#N)cc2C(=O)O)c1 (centres unmarked) [PHA-571260]		32
N#Cc1ccc(NC(=O)c2ccc(S(=O)(=O)N3CCCCCC3)cc2)c(C(=O)O)c1 [PHA-571174]	64 (≈ 150 µM)	
COc1cc(C(=O)c2cccc(C(=O)Nc3ccc(Cl)cc3C(=O)O)c2)cc(OC)c1OC	32 (≈ 68.1 µM)	
CCCOc1ccc(C(=O)Nc2ccc(C#N)cc2C(=O)O)cc1	16 (≈ 49.3 µM)	
O=C(Nc1ccc(Cl)cc1C(=O)O)c1ccc(C(=O)c2c[nH]c3ccccc23)cc1	8 (≈ 19.1 µM)	
N#Cc1ccc(NC(=O)c2ccc(C#Cc3ccccc3)cc2)c(C(=O)O)c1 [PHA-568907]	8 (≈ 21.8 µM)	
CCCCN(CC)S(=O)(=O)c1cccc(C(=O)Nc2ccc(C#N)cc2C(=O)O)c1 [PHA-571197]	16 (≈ 37.3 µM)	
O=C(Nc1ccc(I)cc1C(=O)O)c1cccc(S(=O)(=O)N2CC=CC2)c1	8 (≈ 16.1 µM)	
N#Cc1ccc(NC(=O)c2cccc(S(=O)(=O)N3CCN(c4ccc([N+](=O)[O-])cc4)CC3)c2)c(C(=O)O)c1 [PHA-656810]	2 (≈ 3.73 µM)	
N#Cc1ccc(NC(=O)c2cccc(Oc3cccc(F)c3)c2)c(C(=O)O)c1 [PHA-562731]	1 (≈ 2.66 µM)	
CN(c1ccc(Cl)cc1)S(=O)(=O)c1cc(C(=O)Nc2ccc(Br)cc2C(=O)O)cc([N+](=O)[O-])c1 [PHA-515583]	8 (≈ 14.1 µM)	
CCN(CC)C(=O)c1c(F)ccc(F)c1C(=O)Nc1ccc(Br)cc1C(=O)O	> 128	
CCC#CCCOc1ccc(C(=O)Nc2ccc(Br)cc2C(=O)O)cc1	16 (≈ 38.4 µM)	
N#Cc1ccc(NC(=O)c2cccc(S(=O)(=O)N3CCN(c4ncccn4)CC3)c2)c(C(=O)O)c1 [PHA-571170]	64 (≈ 130 µM)	
CC(=O)c1ccc(NC(=O)c2cccc(S(=O)(=O)N3CCc4cc(Cl)ccc43)c2)c(C(=O)O)c1 [PHA-719201]	2 (≈ 4.01 µM)	
Cc1ccc(C(=O)Nc2ccc(Br)cc2C(=O)O)cc1S(=O)(=O)NC1Cc2ccccc2C1	0.25 (≈ 0.472 µM)	
O=C(Nc1ccc(Oc2ccccc2)cc1)Nc1cccc(C(=O)Nc2ccc(Br)cc2C(=O)O)c1 [PHA-713399]	16 (≈ 29.3 µM)	
O=C(Nc1cccc(C(=O)Nc2ccc(Br)cc2C(=O)O)c1)c1ccc(Cl)nc1 [PHA-713389]	> 128	
O=Cc1cccc(C(=O)Nc2ccc(Br)cc2C(=O)O)c1	> 128	
CN(C1CCCCC1)S(=O)(=O)c1ccc(C(=O)Nc2ccc(C#N)cc2C(=O)O)cc1 [PHA-571264]	32 (≈ 72.5 µM)	
Cc1ccc(C(=O)Nc2ccc(Br)cc2C(=O)O)cc1S(=O)(=O)N1CCN(c2cccc(C(F)(F)F)c2)CC1	16 (≈ 25.5 µM)	
O=C(Nc1ccc(Cl)cc1C(=O)O)c1cccc(C(NC2CCc3ccccc32)c2ccccc2)c1 (centres unmarked)	16 (≈ 32.2 µM)	
Cc1ccccc1Oc1cccc(C(=O)Nc2ccc(C#N)cc2C(=O)O)c1 [PHA-562733]	0.25 (≈ 0.671 µM)	
O=C(Nc1ccc(Br)cc1C(=O)O)c1ccc(Br)c(S(=O)(=O)Nc2ccc3c(c2)OCCO3)c1	64 (≈ 105 µM)	

Structure (SMILES)	MIC [µg/mL]	SA 9218 MIC [µg/mL]
O=C(Nc1ccc(Br)cc1C(=O)O)c1ccc(OCc2cccc([N+](=O)[O-])c2)cc1	16 (≈ 34 µM)	
N#Cc1ccc(C(=O)Nc2ccc(C#N)cc2C(=O)O)cc1	> 128	
O=C(Nc1ccc(C(=O)Nc2ccc(Br)cc2C(=O)O)cc1)c1ccccc1 [PHA-708977]	> 128	
O=C(Nc1cccc(Cl)c1)Nc1cccc(C(=O)Nc2ccc(Br)cc2C(=O)O)c1 [PHA-708991]	4 (≈ 8.18 µM)	
CC(C)CN(CC(C)C)S(=O)(=O)c1cccc(C(=O)Nc2ccc(C#N)cc2C(=O)O)c1 [PHA-571164]	8 (≈ 17.5 µM)	
Cc1ncc([N+](=O)[O-])n1CCOc1ccc(C(=O)Nc2ccc(Br)cc2C(=O)O)cc1	128 (≈ 262 µM)	
O=C(Nc1ccc(Br)cc1C(=O)O)c1ccc(S(=O)(=O)n2cnc3ccccc32)cc1 [PNU-283371]	4 (≈ 7.99 µM)	
O=C(Nc1ccc(Br)cc1C(=O)O)c1ccc(S(=O)(=O)Nc2nc[nH]n2)cc1 [PNU-282859]	32 (≈ 68.6 µM)	
O=C(Nc1ccc(Cl)cc1C(=O)O)c1cccc(C(=O)c2ccco2)c1	8 (≈ 21.6 µM)	
COC(=O)c1cccc(C(=O)c2cccc(C(=O)Nc3ccc(Cl)cc3C(=O)O)c2)c1 [PHA-656886]	16 (≈ 36.5 µM)	
N#Cc1ccc(NC(=O)c2ccc(S(=O)(=O)Nc3ccc4c(c3)CCC4)cc2)c(C(=O)O)c1 [PHA-571207]	32 (≈ 69.3 µM)	
O=C(O)c1cc(Br)ccc1NC(=O)c1ccc(F)c2ccccc12	32 (≈ 82.4 µM)	
COc1cc(OC)cc(C(=O)Nc2ccc(C#N)cc2C(=O)O)c1	8 (≈ 24.5 µM)	
COc1cc(COc2cccc(C(=O)Nc3ccc(Br)cc3C(=O)O)c2)cc(OC)c1	16 (≈ 32.9 µM)	
CN(C)c1ccc(CNS(=O)(=O)c2cc(C(=O)Nc3ccc(Br)cc3C(=O)O)ccc2Br)cc1	64 (≈ 105 µM)	
CN(CCC(O)c1ccccc1)S(=O)(=O)c1cccc(C(=O)Nc2ccc(C#N)cc2C(=O)O)c1 (centres unmarked) [PHA-571196]	64 (≈ 130 µM)	
CC(C)N(Cc1ccccc1)S(=O)(=O)c1cccc(C(=O)Nc2ccc(C#N)cc2C(=O)O)c1 [PHA-571216]	32 (≈ 67 µM)	
CC1CCN(S(=O)(=O)c2cccc(C(=O)Nc3ccc(C#N)cc3C(=O)O)c2)CC1 [PHA-571273]	8 (≈ 18.7 µM)	
CN(CCc1ccccn1)S(=O)(=O)c1cccc(C(=O)Nc2ccc(C#N)cc2C(=O)O)c1 [PHA-656872]	> 128	
O=C(Nc1ccc(Br)cc1C(=O)O)c1cccc(NC(=O)c2ccc([N+](=O)[O-])o2)c1 [PHA-713387]	128 (≈ 270 µM)	
Cc1csc(-c2ccc(NC(=O)c3cccc(S(=O)(=O)N4CCc5cc(Cl)ccc54)c3)c(C(=O)O)c2)c1 [PHA-563277]	2 (≈ 3.62 µM)	
O=C(Nc1ccc(Br)cc1C(=O)O)c1ccc(OCCSc2nc3ccccc3s2)cc1	64 (≈ 121 µM)	
O=C(Nc1ccc(Br)cc1C(=O)O)c1ccc(S(=O)(=O)n2ccc3cc(F)c(Cl)cc32)cc1 [PNU-291010]	1 (≈ 1.81 µM)	
C=CCON=C(c1ccc(C(=O)Nc2ccc(Cl)cc2C(=O)O)cc1)c1ccco1 [drawing 1123]		64
O=C(Nc1ccc(/C=N/O)cc1C(=O)O)c1cccc(S(=O)(=O)N2CCc3cc(Cl)ccc32)c1 [PHA-686834]	4 (≈ 8 µM)	
O=C(Nc1ccc(Br)cc1C(=O)O)c1cccc(C(O)c2ccccc2)c1 (centres unmarked) [PHA-566948]	1 (≈ 2.35 µM)	

Structure (SMILES)	MIC [µg/mL]	SA 9218 MIC [µg/mL]
CCC(CC)C(=O)c1cccc(C(=O)Nc2ccc(Cl)cc2C(=O)O)c1	8 (≈ 21.4 µM)	
O=C(Nc1ccc(Br)cc1C(=O)O)c1cccc(S(=O)(=O)Nc2ccc3c(c2)OCCO3)c1	4 (≈ 7.5 µM)	
CCCC(Oc1cccc(C(=O)Nc2ccc(Br)cc2C(=O)O)c1)C(=O)OCC (centres unmarked)	8 (≈ 17.2 µM)	
O=C(Nc1ccc(Br)cc1C(=O)O)c1cccc(S(=O)(=O)N2CCc3ccc(Cl)cc32)c1	2 (≈ 3.73 µM)	
N#Cc1ccc(NC(=O)c2cccc(S(=O)(=O)n3ccc4ccccc43)c2)c(C(=O)O)c1 [PHA-543141]	0.125 (≈ 0.281 µM)	
N#Cc1ccc(-c2ccc(NC(=O)c3cccc(S(=O)(=O)N4CCc5cc(Cl)ccc54)c3)c(C(=O)O)c2)cc1 [PHA-563276]	2 (≈ 3.58 µM)	
O=C(Nc1ccc(Cl)cc1C(=O)O)c1ccc(C(=O)c2ccco2)cc1	4 (≈ 10.8 µM)	
N#Cc1ccc(NC(=O)c2cccc(S(=O)(=O)N3CCc4cc(Cl)ccc43)c2)c(C(=O)O)c1 [PHA-524523, 2-({3-[(5-Chloro-2,3-dihydro-1H-indol-1-yl)sulfonyl]benzoyl}amino)-5-cyanobenzoic acid]	0.125 (≈ 0.259 µM)	
O=C(Nc1ccc(Cl)cc1C(=O)O)c1cccc(I)c1	8 (≈ 19.9 µM)	
N#Cc1ccc(NC(=O)c2cccc(S(=O)(=O)Nc3ccc4c(c3)CCC4)c2)c(C(=O)O)c1 [PHA-656860]	8 (≈ 17.3 µM)	
CC(C)CN1C(=O)c2ccc(C(=O)Nc3ccc(Br)cc3C(=O)O)cc2C1=O	2 (≈ 4.49 µM)	
O=C(Nc1ccc(Br)cc1C(=O)O)c1ccc(OCc2ccccc2)cc1	16 (≈ 37.5 µM)	
O=C(Nc1ccc(Br)cc1C(=O)O)c1cccc(OCc2cccc(C(F)(F)F)c2)c1	64 (≈ 129 µM)	
Cc1ccc(S(=O)(=O)N2CCN(c3ccc(Cl)cc3)CC2)cc1C(=O)Nc1ccc(Br)cc1C(=O)O	32 (≈ 54 µM)	
COc1ccc(C(=O)Nc2cccc(C(=O)Nc3ccc(Br)cc3C(=O)O)c2)c(OC)c1 [PHA-708984]	32 (≈ 64.1 µM)	
O=C(Nc1ccc(Br)cc1C(=O)O)c1cccc(CCc2ccccc2)c1 [PHA-530989]	4 (≈ 9.43 µM)	
O=C(Nc1ccc(I)cc1C(=O)O)c1cccc(S(=O)(=O)N2CCSC2)c1	8 (≈ 15.4 µM)	
O=C(Nc1ccccc1)Nc1ccc(C(=O)Nc2ccc(Br)cc2C(=O)O)cc1 [PHA-713393]	> 128	
O=C(Nc1ccc(Br)cc1C(=O)O)c1ccc(/N=N/c2ccccc2)cc1	16 (≈ 37.7 µM)	
CC1CC(C)CN(S(=O)(=O)c2cccc(C(=O)Nc3ccc(C#N)cc3C(=O)O)c2)C1 (centres unmarked) [PHA-571243]	4 (≈ 9.06 µM)	
O=C(Nc1ccc(Cl)cc1C(=O)O)c1cccc(C(=O)C2CCCO2)c1 (centres unmarked)	64 (≈ 171 µM)	
O=C(O)c1cc(Br)ccc1NC(=O)c1cccc2c1C(=O)c1ccccc1-2	> 128	
Cc1ccc(C(=O)Nc2ccc(Br)cc2C(=O)O)cc1S(=O)(=O)N1CCc2ccc(Cl)cc21	1 (≈ 1.82 µM)	
CN1CCCC1COc1ccc(C(=O)Nc2ccc(Br)cc2C(=O)O)cc1 (centres unmarked)	> 128	
CCOc1ccc(C(=O)Nc2ccc(Br)cc2C(=O)O)cc1	64 (≈ 176 µM)	
